From patent US20080058309A1, “Novel Compounds 171” (ASTRAZENECA AB, priority 2006, published 2008)
Structures can show the parent of a compound that is named as a salt.

Tests used:
P2X7 receptor = biological target: T1, P2X7 receptor (Homo sapiens, UniProt Q99572); experiment: P2X7 receptor antagonist test: bbATP-induced ethidium bromide fluorescence in THP-1 cells; assay type: cell-based; settings: negative logarithm of concentration reducing bbATP agonist activity by 50%, 10^-5M bbATP, 37° C. one hour
T1 construct: 200 μl of a suspension of THP-1 cells; endogenous in cells; host or cells: THP-1 cells
T1 sequence (Q99572 1-595): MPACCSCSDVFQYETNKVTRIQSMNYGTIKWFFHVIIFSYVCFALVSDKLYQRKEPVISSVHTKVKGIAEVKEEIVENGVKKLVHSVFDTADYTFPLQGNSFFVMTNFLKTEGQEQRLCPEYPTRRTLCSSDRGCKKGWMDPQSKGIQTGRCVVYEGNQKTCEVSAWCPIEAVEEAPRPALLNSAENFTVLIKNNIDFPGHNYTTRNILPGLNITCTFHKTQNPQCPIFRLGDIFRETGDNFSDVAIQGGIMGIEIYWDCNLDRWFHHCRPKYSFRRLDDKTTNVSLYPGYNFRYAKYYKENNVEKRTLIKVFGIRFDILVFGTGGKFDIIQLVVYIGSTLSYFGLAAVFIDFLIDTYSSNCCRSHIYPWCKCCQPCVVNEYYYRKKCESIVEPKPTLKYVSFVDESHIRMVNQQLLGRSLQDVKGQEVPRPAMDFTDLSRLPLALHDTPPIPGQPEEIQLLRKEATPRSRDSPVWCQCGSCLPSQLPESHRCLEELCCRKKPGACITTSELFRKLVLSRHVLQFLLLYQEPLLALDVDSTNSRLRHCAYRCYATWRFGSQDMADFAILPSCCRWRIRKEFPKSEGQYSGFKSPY
Description: Certain compounds such as benzoylbenzoyl adenosine triphosphate (bbATP) are known to be agonists of the P2X7 receptor, effecting the formation of pores in the plasma membrane (Drug Development Research (1996), 37(3), p. 126). Consequently, when the receptor is activated using bbATP in the presence of ethidium bromide (a fluorescent DNA probe), an increase in the fluorescence of intracellular DNA-bound ethidium bromide is observed. The increase in fluorescence can be used as a measure of P2X7 receptor activation and therefore to quantify the effect of a compound on the P2X7 receptor.
In this manner, each of the title compounds of the Examples was tested for antagonist activity at the P2X7 receptor. Thus, the test was performed in 96-well flat bottomed microtitre plates, the wells being filled with 250 μl of test solution comprising 200 μl of a suspension of THP-1 cells (2.5×10^6 cells/ml) containing 10^−4M ethidium bromide, 25 μl of a high potassium buffer solution containing 10^−5M bbATP, and 25 μl of the high potassium buffer solution containing concentrations of test compound typically from 30 μM-0.001 μM. The plate was covered with a plastics sheet and incubated at 37° C. for one hour. The plate was then read in a Perkin-Elmer fluorescent plate reader, excitation 520 nm, emission 595 nm, slit widths: Ex 15 nm, Em 20 nm. […]

SMILES | melting point | IC50 (P2X7 receptor)
N#Cc1cccc(NCC(=O)Nc2c(Cl)ccc3nc(N4CC[C@@H](O)C4)ccc23)c1 [Example 7, N-[6-Chloro-2-[(3R)-3-hydroxy-1-pyrrolidinyl]-5-quinolinyl]-2-[(3-cyanophenyl)amino]-acetamide] |  | 79.4 nM
O=C(CNc1ccc(F)c(F)c1)Nc1c(Cl)ccc2nc(N3CC[C@@H](O)C3)ccc12 | 238 to 240 °C | 
N#Cc1ccc(NCC(=O)Nc2c(Cl)ccc3nc(N4CC[C@@H](O)C4)ccc23)cc1 | 230 to 233 °C | 
CC(O)C(O)c1ccc2c(NC(=O)CNc3ccc(F)cc3)c(Cl)ccc2n1 (stereo not shown) | 135 to 138 °C | 
O=C(CSc1ccccc1)Nc1c(Cl)ccc2nc(N3CC[C@@H](O)C3)ccc12 [Example 6, N-[6-Chloro-2-[(3R)-3-hydroxy-1-pyrrolidinyl]-5-quinolinyl]-2-(phenylthio)-acetamide] | 246 to 249 °C | 398 nM

Further lines, with some results ahead:

melting point | SMILES | IC50 (P2X7 receptor)
242 to 246 °C | O=C(CNc1ccc(F)cc1)Nc1c(Cl)ccc2nc(N3CC[C@@H](O)C3)ccc12 | 
230 to 232 °C | O=C(CNc1ccccc1)Nc1c(Cl)ccc2nc(N3CC[C@@H](O)C3)ccc12 | 
175 °C (dec.) | O=C(CNc1ccc(Cl)cc1)Nc1c(Cl)ccc2nc(N3CC[C@@H](O)C3)ccc12 (as salt: hydrochloride) | 
218 to 220 °C | O=C(CNc1cccc(F)c1)Nc1c(Cl)ccc2nc(N3CC[C@@H](O)C3)ccc12 | 
180 °C (dec.) | O=C(CNc1cccc(Cl)c1)Nc1c(Cl)ccc2nc(N3CC[C@@H](O)C3)ccc12 (as salt: hydrochloride) | 
215 to 219 °C | O=C(CNc1ccccc1Cl)Nc1c(Cl)ccc2nc(N3CC[C@@H](O)C3)ccc12 | 
233 to 235 °C | O=C(COc1ccccc1)Nc1c(Cl)ccc2nc(N3CC[C@@H](O)C3)ccc12 | 
